Laboratory results from ChEMBL document CHEMBL4118143, “Discovery of dimethyl pent-4-ynoic acid derivatives, as potent and orally bioavailable DGAT1 inhibitors that suppress body weight in diet-induced mouse obesity model” (Bioorg Med Chem Lett, 2018).
pEC50, pIC50: −log10 of the molar value. Converted amounts (≈) assume the structure as drawn. The source made the active and inactive calls. The rule behind the calls is not given here.

Key:
[1] = biological target: T1, Diacylglycerol O-acyltransferase 1 (Mus musculus, UniProt Q9Z2A7); test: Inhibition of mouse DGAT1 expressed in insect cell membranes using diacylglycerol/[14C]-oleoyl-CoA as substrate preincubated for 10 mins followed by [14C]-oleoyl-CoA addition measured after 15 mins by scintillation counting method
T1 sequence (Q9Z2A7 whole entry): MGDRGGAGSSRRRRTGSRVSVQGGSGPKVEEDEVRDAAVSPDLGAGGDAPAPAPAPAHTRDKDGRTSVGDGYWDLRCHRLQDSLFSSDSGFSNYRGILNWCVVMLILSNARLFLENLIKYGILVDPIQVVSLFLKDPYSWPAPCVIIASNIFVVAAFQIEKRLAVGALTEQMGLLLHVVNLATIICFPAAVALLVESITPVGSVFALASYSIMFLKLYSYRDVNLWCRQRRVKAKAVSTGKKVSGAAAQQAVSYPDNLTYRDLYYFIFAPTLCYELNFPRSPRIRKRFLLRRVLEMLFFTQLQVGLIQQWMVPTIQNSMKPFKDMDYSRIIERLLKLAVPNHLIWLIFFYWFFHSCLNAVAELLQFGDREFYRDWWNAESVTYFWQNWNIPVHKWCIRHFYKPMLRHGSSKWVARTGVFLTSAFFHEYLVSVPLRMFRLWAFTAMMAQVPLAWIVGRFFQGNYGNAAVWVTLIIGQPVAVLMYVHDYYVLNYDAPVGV

[2] = Cmax in Sprague-Dawley rat at 10 mg/kg, po; assay type: ADME, organism-based; design: dose 10 mg/kg, route oral; conditions: in vivo
[3] = Oral bioavailability in Sprague-Dawley rat at 10 mg/kg; assay type: ADME, organism-based; conditions: in vivo
[4] = Clearance in Sprague-Dawley rat at 0.5 mg/kg, iv; assay type: ADME, organism-based; conditions: in vivo
[5] = AUC in Sprague-Dawley rat at 10 mg/kg, po; assay type: ADME, organism-based; conditions: in vivo
[6] = Tmax in Sprague-Dawley rat at 10 mg/kg, po; assay type: ADME, organism-based; conditions: in vivo
[7] = Volume of distribution at steady state in Sprague-Dawley rat at 0.5 mg/kg, iv; assay type: ADME, organism-based; conditions: in vivo, read-out: Vdss
[8] = Intrinsic clearance in mouse liver microsomes; assay type: ADME, microsome; conditions: read-out: CLH
[9] = biological target: T2, Diacylglycerol O-acyltransferase 2 (Homo sapiens, UniProt Q96PD7); test: Inhibition of human DGAT2 expressed in insect cell membranes using diacylglycerol/[14C]-oleoyl-CoA as substrate preincubated for 10 mins followed by [14C]-oleoyl-CoA addition measured after 15 mins by scintillation counting method
T2 sequence (Q96PD7 whole entry): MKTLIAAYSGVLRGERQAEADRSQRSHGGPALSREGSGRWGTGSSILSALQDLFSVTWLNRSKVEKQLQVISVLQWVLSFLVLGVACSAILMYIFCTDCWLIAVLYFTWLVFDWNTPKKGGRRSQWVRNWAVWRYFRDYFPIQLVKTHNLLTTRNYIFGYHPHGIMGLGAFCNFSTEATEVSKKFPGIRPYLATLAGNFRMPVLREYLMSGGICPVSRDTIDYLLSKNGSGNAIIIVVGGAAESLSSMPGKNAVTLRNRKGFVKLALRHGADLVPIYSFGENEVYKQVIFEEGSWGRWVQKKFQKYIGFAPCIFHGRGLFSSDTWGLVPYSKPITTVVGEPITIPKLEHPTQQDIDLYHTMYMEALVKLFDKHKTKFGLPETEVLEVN

[10] = Metabolic stability in mouse liver microsomes assessed as parent compound remaining measured at 60 mins; assay type: ADME, microsome; conditions: read-out: Stability
[11] = Metabolic stability in human liver microsomes assessed as parent compound remaining measured at 60 mins; assay type: ADME, microsome; conditions: read-out: Stability
[12] = Clearance in CD1 mouse at 0.5 mg/kg, iv; assay type: ADME, organism-based; conditions: in vivo
Cytochrome P450 2D6 = Cytochrome P450 2D6 (Homo sapiens, UniProt P10635); test: Inhibition of CYP2D6 (unknown origin); assay type: ADME
Sequence of Cytochrome P450 2D6 (P10635 whole entry): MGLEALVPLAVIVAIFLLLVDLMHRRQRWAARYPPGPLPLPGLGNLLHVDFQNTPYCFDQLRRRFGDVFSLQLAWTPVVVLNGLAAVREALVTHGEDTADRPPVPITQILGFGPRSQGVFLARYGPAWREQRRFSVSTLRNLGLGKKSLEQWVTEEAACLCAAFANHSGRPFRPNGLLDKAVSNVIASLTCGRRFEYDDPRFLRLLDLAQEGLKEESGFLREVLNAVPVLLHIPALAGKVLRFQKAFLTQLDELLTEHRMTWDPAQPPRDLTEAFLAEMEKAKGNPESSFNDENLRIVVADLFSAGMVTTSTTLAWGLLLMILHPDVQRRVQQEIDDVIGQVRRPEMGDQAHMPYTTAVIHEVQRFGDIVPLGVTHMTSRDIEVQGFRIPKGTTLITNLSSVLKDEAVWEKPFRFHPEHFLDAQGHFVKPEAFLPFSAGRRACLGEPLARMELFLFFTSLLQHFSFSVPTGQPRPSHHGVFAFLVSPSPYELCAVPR

[13] = biological target: T3, Diacylglycerol O-acyltransferase 1 (Homo sapiens, UniProt O75907); test: Inhibition of human DGAT1 expressed in insect cell membranes using diacylglycerol/[14C]-oleoyl-CoA as substrate preincubated for 10 mins followed by [14C]-oleoyl-CoA addition measured after 15 mins by scintillation counting method
T3 sequence (O75907 whole entry): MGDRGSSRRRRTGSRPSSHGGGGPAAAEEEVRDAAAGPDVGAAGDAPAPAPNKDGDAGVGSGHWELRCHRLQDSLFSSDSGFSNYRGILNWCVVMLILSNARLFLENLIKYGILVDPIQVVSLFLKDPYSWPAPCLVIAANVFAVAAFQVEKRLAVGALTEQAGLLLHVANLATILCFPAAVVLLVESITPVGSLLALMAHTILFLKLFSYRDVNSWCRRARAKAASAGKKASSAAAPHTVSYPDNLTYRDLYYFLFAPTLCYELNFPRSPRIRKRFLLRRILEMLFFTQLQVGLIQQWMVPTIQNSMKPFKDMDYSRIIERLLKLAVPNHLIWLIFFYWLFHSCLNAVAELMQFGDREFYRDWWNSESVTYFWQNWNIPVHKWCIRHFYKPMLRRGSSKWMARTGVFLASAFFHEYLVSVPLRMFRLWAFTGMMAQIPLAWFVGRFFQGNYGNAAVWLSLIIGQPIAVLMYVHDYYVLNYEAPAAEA

[14] = AUC in CD1 mouse at 10 mg/kg, po; assay type: ADME, organism-based; conditions: in vivo
Cytochrome P450 3A4 = Cytochrome P450 3A4 (Homo sapiens, UniProt P08684); test: Inhibition of CYP3A4 (unknown origin); assay type: ADME
Sequence of Cytochrome P450 3A4 (P08684 whole entry): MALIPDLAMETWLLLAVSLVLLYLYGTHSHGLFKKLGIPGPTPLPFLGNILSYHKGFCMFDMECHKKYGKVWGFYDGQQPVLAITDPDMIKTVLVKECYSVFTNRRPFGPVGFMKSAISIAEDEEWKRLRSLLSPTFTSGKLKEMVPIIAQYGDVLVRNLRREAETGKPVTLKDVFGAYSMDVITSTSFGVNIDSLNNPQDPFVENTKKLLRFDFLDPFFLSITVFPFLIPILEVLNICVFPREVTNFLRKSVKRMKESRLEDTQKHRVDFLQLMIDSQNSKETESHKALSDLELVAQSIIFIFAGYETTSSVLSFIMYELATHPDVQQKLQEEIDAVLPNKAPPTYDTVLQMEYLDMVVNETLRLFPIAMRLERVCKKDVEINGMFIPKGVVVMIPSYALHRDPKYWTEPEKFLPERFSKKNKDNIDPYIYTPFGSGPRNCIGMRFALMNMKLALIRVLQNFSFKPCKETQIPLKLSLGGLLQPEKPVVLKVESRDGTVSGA

Mus musculus [15] = test: Hepatotoxicity in diet-induced obesity C57BL/6 mouse model at 10 mg/kg administered via oral gavage as bid for 7 days; assay type: toxicity, organism-based; conditions: in vivo, 168 h
Cytochrome P450 1A2 = biological target: T4, Cytochrome P450 1A2 (Homo sapiens, UniProt P05177); test: Inhibition of CYP1A2 (unknown origin); assay type: ADME
T4 sequence (P05177 whole entry): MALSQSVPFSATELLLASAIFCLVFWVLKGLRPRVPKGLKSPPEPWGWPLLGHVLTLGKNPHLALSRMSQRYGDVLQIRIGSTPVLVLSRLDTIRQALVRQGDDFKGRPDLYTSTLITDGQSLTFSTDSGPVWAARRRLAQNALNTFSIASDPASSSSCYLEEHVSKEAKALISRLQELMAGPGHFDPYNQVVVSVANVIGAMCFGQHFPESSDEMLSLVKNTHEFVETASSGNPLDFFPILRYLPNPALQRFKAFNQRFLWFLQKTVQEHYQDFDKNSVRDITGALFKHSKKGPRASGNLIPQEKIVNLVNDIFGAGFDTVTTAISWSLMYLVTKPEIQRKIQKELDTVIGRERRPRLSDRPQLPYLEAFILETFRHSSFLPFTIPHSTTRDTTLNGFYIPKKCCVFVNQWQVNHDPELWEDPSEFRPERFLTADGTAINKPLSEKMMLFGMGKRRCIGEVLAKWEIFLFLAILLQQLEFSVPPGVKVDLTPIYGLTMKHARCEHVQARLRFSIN

[16] = Protein binding in human plasma; assay type: ADME, cell-free; conditions: read-out: PPB (converted)
Mus musculus [17] = test: Inhibition of corn oil-induced plasma triacylglycerol excursion in CD1 mouse at 0.3 to 1 mg/kg administered via oral gavage 30 mins prior to corn oil challenge measured at 2 hrs by lipid tolerance test; assay type: functional, organism-based
Mus musculus [18] = test: Antiobesity activity in diet-induced obesity C57BL/6 mouse model assessed as reduction in cumulative food intake at 10 mg/kg administered via oral gavage as bid for 7 days relative to vehicle-treated control; assay type: functional; design: scale not given: the % may be the effect or the level left
[19] = biological target: T3, Diacylglycerol O-acyltransferase 1; test: Inhibition of DGAT1 in human HEK293 cells using [13C18]oleic acid as substrate assessed as decrease in triacylglycerol synthesis preincubated for 15 mins followed by [13C18]oleic acid addition measured after 2 hrs by LC/MS/MS analysis; assay type: cell-based
[20] = Tmax in CD1 mouse at 10 mg/kg, po; assay type: ADME, organism-based; conditions: in vivo
Cytochrome P450 2C19 = Cytochrome P450 2C19 (Homo sapiens, UniProt P33261); test: Inhibition of CYP2C19 (unknown origin); assay type: ADME
Sequence of Cytochrome P450 2C19 (P33261 whole entry): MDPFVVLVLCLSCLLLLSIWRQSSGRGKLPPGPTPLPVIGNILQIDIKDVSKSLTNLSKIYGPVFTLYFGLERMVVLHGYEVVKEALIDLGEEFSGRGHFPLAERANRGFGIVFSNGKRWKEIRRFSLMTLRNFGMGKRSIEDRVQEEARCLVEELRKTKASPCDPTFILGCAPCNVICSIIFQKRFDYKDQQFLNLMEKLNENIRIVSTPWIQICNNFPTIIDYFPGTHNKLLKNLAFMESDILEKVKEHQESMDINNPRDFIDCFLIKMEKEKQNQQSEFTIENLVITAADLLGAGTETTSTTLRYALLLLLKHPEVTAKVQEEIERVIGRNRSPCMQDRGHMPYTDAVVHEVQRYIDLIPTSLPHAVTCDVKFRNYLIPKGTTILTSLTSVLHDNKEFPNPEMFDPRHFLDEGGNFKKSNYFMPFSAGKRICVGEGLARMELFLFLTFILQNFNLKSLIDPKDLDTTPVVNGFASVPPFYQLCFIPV

[21] = Oral bioavailability in CD1 mouse at 10 mg/kg; assay type: ADME, organism-based; conditions: in vivo
[22] = Intrinsic clearance in human liver microsomes; assay type: ADME, microsome; conditions: read-out: CLH
Cytochrome P450 2C9 = Cytochrome P450 2C9 (Homo sapiens, UniProt P11712); test: Inhibition of CYP2C9 (unknown origin); assay type: ADME
Sequence of Cytochrome P450 2C9 (P11712 whole entry): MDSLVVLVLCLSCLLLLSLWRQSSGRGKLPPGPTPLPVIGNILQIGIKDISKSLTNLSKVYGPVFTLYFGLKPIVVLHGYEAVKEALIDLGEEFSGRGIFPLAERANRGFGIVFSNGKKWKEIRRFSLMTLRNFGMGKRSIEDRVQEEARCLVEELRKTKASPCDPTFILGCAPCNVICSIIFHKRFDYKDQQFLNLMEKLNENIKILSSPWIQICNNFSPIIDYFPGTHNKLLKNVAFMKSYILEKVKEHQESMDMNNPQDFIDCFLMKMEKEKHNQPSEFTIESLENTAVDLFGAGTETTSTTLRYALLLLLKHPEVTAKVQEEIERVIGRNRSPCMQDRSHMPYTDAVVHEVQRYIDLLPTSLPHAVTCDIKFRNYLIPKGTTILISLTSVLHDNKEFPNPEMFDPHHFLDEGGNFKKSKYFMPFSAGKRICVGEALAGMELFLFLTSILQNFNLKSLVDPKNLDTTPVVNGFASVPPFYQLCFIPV

Mus musculus [23] = test: Antiobesity activity in diet-induced obesity C57BL/6 mouse model assessed as reduction in body weight at 10 mg/kg administered via oral gavage as bid for 7 days; assay type: functional, organism-based
[24] = Volume of distribution at steady state in CD1 mouse at 0.5 mg/kg, iv; assay type: ADME, organism-based; conditions: in vivo, read-out: Vdss
[25] = Cmax in CD1 mouse at 10 mg/kg, po; assay type: ADME, organism-based; design: dose 10 mg/kg, route oral; conditions: in vivo
[26] = Solubility of the compound at pH 7.4; assay type: physicochemical; conditions: buffer

CC(C)(C#Cc1c(Cl)cc(N2CCOc3ncnc(N)c3C2=O)cc1Cl)CC(=O)O
pIC50 [1]: 8.00

CCc1cc(N2CCOc3ncnc(N)c3C2=O)cc(CC)c1C#CC(C)(C)CC(=O)O
pIC50 [1]: 7.92

COc1cc(N2CCOc3ncnc(N)c3C2=O)ccc1C#CC(C)(C)CC(=O)O
pIC50 [1]: 6.14

COc1cc(N2CCOc3ncnc(N)c3C2=O)cc(C)c1C#CC(C)(C)CC(=O)O
pIC50 [1]: 7.02

Cc1cc(N2CCOc3ncnc(N)c3C2=O)cc(Cl)c1C#CC(C)(C)CC(=O)O
pIC50 [1]: 7.85

CC(C)(C#Cc1ccc(N2CCOc3ncnc(N)c3C2=O)cc1OC(F)(F)F)CC(=O)O
pIC50 [1]: 7.04

CC(C)(C#Cc1ccc(N2CCOc3ncnc(N)c3C2=O)cc1C(F)(F)F)CC(=O)O
pIC50 [1]: 7.62

CCc1cc(N2CCOc3ncnc(N)c3C2=O)ccc1C#CC(C)(C)CC(=O)O
pIC50 [1]: 6.17

CC(C)(C#Cc1ccc(N2CCOc3ncnc(N)c3C2=O)cc1F)CC(=O)O
pIC50 [1]: 7.24

CC(C)(C#Cc1ccc(N2CCOc3ncnc(N)c3C2=O)cc1Cl)CC(=O)O
pIC50 [1]: 7.59

Cc1cc(C#CC(C)(C)CC(=O)O)ccc1N1CCOc2ncnc(N)c2C1=O
pIC50 [1]: 5.42

CC(C)(C#Cc1ccc(N2CCOc3ncnc(N)c3C2=O)cc1)CC(=O)O
Cmax [2]: 2160 ng/mL | bioavailability [3]: 42% | clearance [4]: 14.8 mL/min/kg | AUC [5]: 4100 ng·h/mL | Tmax [6]: 30 min | Vd [7]: 1.06 L/kg

CCc1cc(N2CCOc3ncnc(N)c3C2=O)cc(C)c1C#CC(C)(C)CC(=O)O
pIC50 [1]: 7.92

Cc1cc(N2CCOc3ncnc(N)c3C2=O)cc(F)c1C#CC(C)(C)CC(=O)O
pIC50 [1]: 7.96

Cc1cc(N2CCOc3ncnc(N)c3C2=O)cc(C)c1C#CC(C)(C)CC(=O)O
Cmax [2]: 8700 ng/mL | bioavailability [3]: 70% | pIC50 [1]: 7.92 | CLint scaled [8]: < 38 mL/min/kg | pIC50 [9]: < 4.30 | clearance [4]: 4.76 mL/min/kg | remaining at 1 h [10]: 97.9% | remaining at 1 h [11]: 97.6% | clearance [12]: 39.3 mL/min/kg | pIC50 (Cytochrome P450 2D6): 4.57 | pIC50 [13]: 7.55 to 7.68 | AUC [5]: 21000 ng·h/mL | AUC [14]: 1250 ng·h/mL | Tmax [6]: 30 min | pIC50 (Cytochrome P450 3A4): 4.34 | Activity (Mus musculus [15]): Non-Toxic | pIC50 (Cytochrome P450 1A2): 4.56 | fraction unbound [16]: 0.139 | inhibition (Mus musculus [17]): Active | Activity (Mus musculus [18]): 11% | pEC50 [19]: 7.59 | Tmax [20]: 30 min | pIC50 (Cytochrome P450 2C19): 4.53 | bioavailability [21]: 31% | CLint scaled [22]: < 9.5 mL/min/kg | pIC50 (Cytochrome P450 2C9): < 4.00 | Activity (Mus musculus [23]): Active | Vd [24]: 2.44 L/kg | Cmax [25]: 521 ng/mL | solubility [26]: 110 µM (≈ 44.9 µg/mL) | Vd [7]: 1.12 L/kg
